{"source": "paper PMC5344255", "about": "“Design, Synthesis and Biochemical Evaluation of Novel Selective Estrogen Receptor Ligand Conjugates Incorporating an Endoxifen-Combretastatin Hybrid Scaffold” (Biomedicines, 2016)", "key": {"[1]": {"tested_on": "MCF-7 human breast cancer cells", "assay": "MTT assay for antiproliferative effects in MCF-7", "format": "cell-based", "details": "Homo sapiens, MCF7, MCF-7, MTT assay", "procedure,_shortened": "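MCF-7 grown in MEM and MDA-MB-231 in D-MEM, each with 10% FBS, at 37 °C and 5% CO2. Viability by MTT reduction to formazan by metabolically active cells, plotted against compound concentration. Three experiments in triplicate, given as mean ± SEM.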"}, "[2]": {"tested_on": "MDA-MB-231 human breast cancer cells", "assay": "MTT assay for antiproliferative effects in MDA-MB-231", "format": "cell-based", "details": "MDA-MB-231, MTT assay"}, "[3]": {"tested_on": "Ishikawa cell line of human endometrial adenocarcinoma cells", "assay": "Ishikawa assay, estrogen stimulation of alkaline phosphatase activity", "format": "cell-based", "protocol": "The Ishikawa assay is used to measure estrogen stimulation of alkaline phosphatase enzyme activity (AlkP) by the Ishikawa cell line of human endometrial adenocarcinoma cells. The Ishikawa assay provides a measure of the agonist activity of a compound. […] The assay was carried out following the method of Littlefield et al.. The batch of Ishikawa cells were obtained as a gift from Professor R. Hochberg—who developed the alkaline phosphatase assay in Yale University, CT, USA.\nThe Ishikawa assay is used to measure estrogen stimulation of alkaline phosphatase enzyme activity (AlkP) by the Ishikawa cell line of human endometrial adenocarcinoma cells. […] The conjugate was dosed in duplicate."}, "[4]": {"tested_on": "CCRF-CEM", "assay": "NCI 60 cell line screen", "format": "cell-based, human", "details": "CCRF-CEM (Leukemia)"}, "[5]": {"tested_on": "HL-60 (TB)", "assay": "NCI 60 cell line screen", "format": "cell-based, human", "details": "HL-60 (TB) (Leukemia)"}, "[6]": {"tested_on": "SR", "assay": "NCI 60 cell line screen", "format": "cell-based, human", "details": "SR (Leukemia)"}, "[7]": {"tested_on": "HOP-62", "assay": "NCI 60 cell line screen", "format": "cell-based, human", "details": "HOP-62 (Non-Small Cell Lung Cancer)"}, "[8]": {"tested_on": "NCI-H23", "assay": "NCI 60 cell line screen", "format": "cell-based"}, "[9]": {"tested_on": "COLO 205", "assay": "NCI 60 cell line screen", "format": "cell-based"}, "[10]": {"tested_on": "HT29", "assay": "NCI 60 cell line screen", "format": "cell-based, human", "details": "HT29 (Colon Cancer)"}, "[11]": {"tested_on": "SW-620", "assay": "NCI 60 cell line screen", "format": "cell-based, human", "details": "SW-620 (Colon Cancer)"}, "[12]": {"tested_on": "LOX IMV1", "assay": "NCI 60 cell line screen", "format": "cell-based, human", "details": "LOX IMV1 (Melanoma); one-dose 10 µM"}, "[13]": {"tested_on": "M14", "assay": "NCI 60 cell line screen", "format": "cell-based, human", "details": "M14 (Melanoma); one-dose 10 µM"}, "[14]": {"tested_on": "SK-MEL-28", "assay": "NCI 60 cell line screen", "format": "cell-based, human", "details": "SK-MEL-28 (Melanoma); one-dose 10 µM"}, "[15]": {"tested_on": "UACC-257", "assay": "NCI 60 cell line screen", "format": "cell-based, human", "details": "UACC-257 (Melanoma); one-dose 10 µM"}, "[16]": {"tested_on": "UACC-62", "assay": "NCI 60 cell line screen", "format": "cell-based, human", "details": "UACC-62 (Melanoma); one-dose 10 µM"}, "[17]": {"tested_on": "786-0", "assay": "NCI 60 cell line screen", "format": "cell-based, human", "details": "786-0 (Renal Cancer); one-dose 10 µM"}, "[18]": {"tested_on": "A498", "assay": "NCI 60 cell line screen", "format": "cell-based"}, "[19]": {"tested_on": "UO-31", "assay": "NCI 60 cell line screen", "format": "cell-based, human", "details": "UO-31 (Renal Cancer); one-dose 10 µM"}, "[20]": {"tested_on": "MDA-MB-231/ATCC", "assay": "NCI 60 cell line screen", "format": "cell-based, human", "details": "MDA-MB-231/ATCC (Breast Cancer); one-dose 10 µM"}, "[21]": {"tested_on": "BT-549", "assay": "NCI 60 cell line screen", "format": "cell-based, human", "details": "BT-549 (Breast Cancer); one-dose 10 µM"}}, "note": "Values joined by “and” are separate entries in the source; they are usually repeats but may differ in a detail not shown here. Equal entries are not always repeated. Marks after values point to notes of the source that are not given here.", "data": [{"smiles": "CCC(=C(c1ccc(O)cc1)c1ccc(OCCN(C)C(=O)/C(=C/c2ccc(OC)c(O)c2)c2cc(OC)c(OC)c(OC)c2)cc1)c1ccc(O)cc1", "note": "(mixture of isomers) [Compound 28, (E)-N-(2-{4-[(E/Z)-1,2-Bis-(4-hydroxyphenyl)but-1-enyl]-phenoxy}ethyl)-3-(3-hydroxy-4-methoxyphenyl)-N-methyl-2-(3,4,5-trimethoxyphenyl)acrylamide]", "values": [{"measurement": "IC50", "setting": "[1]; mean of at least three experiments in triplicate", "result": 5, "unit": "nM"}, {"measurement": "IC50", "setting": "[1]; values in nM", "result": 0.005, "unit": "nM"}, {"measurement": "IC50", "setting": "[2]", "result": 2480, "unit": "nM"}, {"measurement": "estrogenic activity (alkaline phosphatase stimulation)", "setting": "[3]; compound dosed individually", "result": "does not display estrogenic stimulation in the cell line"}, {"measurement": "estrogen stimulation (alkaline phosphatase) in mixture with estradiol", "setting": "[3]; dosed with 1 nM estradiol spike", "result": "a reduction in estrogenic stimulation at low concentrations and a more pronounced reduction in estrogen stimulation over the range of concentrations when compared with the Tamoxifen mixture"}, {"measurement": "GI% (10^−5 M)", "setting": "[4]; one-dose 10 µM", "result": 72.48, "unit": "%"}, {"measurement": "GI50", "setting": "[4]; Homo sapiens, five-dose screen", "result": 1770, "unit": "nM"}, {"measurement": "GI% (10^−5 M)", "setting": "[5]; one-dose 10 µM", "result": "100 ^d,f %"}, {"measurement": "GI50", "setting": "[5]; Homo sapiens, five-dose screen", "result": 1400, "unit": "nM"}, {"measurement": "GI50", "setting": "[6]; Homo sapiens, five-dose screen", "result": 2350, "unit": "nM"}, {"measurement": "GI% (10^−5 M)", "setting": "[6]; one-dose 10 µM", "result": 69.03, "unit": "%"}, {"measurement": "GI% (10^−5 M)", "setting": "[7]; one-dose 10 µM", "result": 81.99, "unit": "%"}, {"measurement": "GI50", "setting": "[7]; Homo sapiens, five-dose screen", "result": 2860, "unit": "nM"}, {"measurement": "GI50", "setting": "[8]; Homo sapiens, NCI-H23", "result": 2190, "unit": "nM"}, {"measurement": "LC50", "setting": "[8]; Homo sapiens, NCI-H23, five-dose screen", "result": 48900, "unit": "nM"}, {"measurement": "GI% (10^−5 M)", "setting": "[8]; NCI-H23 (Non-Small Cell Lung Cancer), one-dose 10 µM", "result": "97% and 96.76%"}, {"measurement": "GI% (10^−5 M)", "setting": "[9]; COLO 205 (Colon Cancer), one-dose 10 µM", "result": "100 ^d,i %"}, {"measurement": "GI50", "setting": "[9]; Homo sapiens, COLO 205", "result": 2150, "unit": "nM"}, {"measurement": "LC50", "setting": "[9]; Homo sapiens, COLO 205, five-dose screen", "result": 26200, "unit": "nM"}, {"measurement": "GI% (10^−5 M)", "setting": "[10]; one-dose 10 µM", "result": "100 ^d,l %"}, {"measurement": "GI50", "setting": "[10]; Homo sapiens, HT-29, five-dose screen", "result": 1160, "unit": "nM"}, {"measurement": "GI50", "setting": "[11]; Homo sapiens, five-dose screen", "result": 1210, "unit": "nM"}, {"measurement": "GI% (10^−5 M)", "setting": "[11]; one-dose 10 µM", "result": 81.32, "unit": "%"}, {"measurement": "GI% (10^−5 M)", "setting": "[12]", "result": 1.55, "unit": "%"}, {"measurement": "GI% (10^−5 M)", "setting": "[13]", "result": 1.68, "unit": "%"}, {"measurement": "GI% (10^−5 M)", "setting": "[14]", "result": 1.65, "unit": "%"}, {"measurement": "GI% (10^−5 M)", "setting": "[15]", "result": 2.83, "unit": "%"}, {"measurement": "GI% (10^−5 M)", "setting": "[16]", "result": 0.922, "unit": "%"}, {"measurement": "GI% (10^−5 M)", "setting": "[17]", "result": 1.91, "unit": "%"}, {"measurement": "GI% (10^−5 M)", "setting": "[18]; A498 (Renal Cancer), one-dose 10 µM", "result": 2.94, "unit": "%"}, {"measurement": "CC50", "setting": "[18]; Homo sapiens, A498, five-dose screen, read-out: LC50 (the source's name)", "result": 32600, "unit": "nM"}, {"measurement": "GI% (10^−5 M)", "setting": "[19]", "result": 2.66, "unit": "%"}, {"measurement": "GI% (10^−5 M)", "setting": "[20]", "result": 1.61, "unit": "%"}, {"measurement": "GI% (10^−5 M)", "setting": "[21]", "result": 1.12, "unit": "%"}]}]}
